For 26 compounds, IC50 results are on record in patent publication US20060063785A1, “Substituted pyrazolo[1,5-a] pyrimidines and process for making same” (priority 2004, published 2006).

The test system of the first assay is 80S14 (p21-deficient) cells. The experiment in a line: Determination of selectivity of compounds for p21-/- cells: IC50 in 80S14 cells (SRB). It is filed as cell-based, human. The settings on record: 80S14 (p21-deficient) cells, 5 days at 37° C., SRB; read-out: IC50 for 80S14. Here is the method: • 1. 80S14 (p21-deficient) cells were cultured in RPMI 1640 medium (Gibco/Invitrogen Life technologies) supplemented with 10% fetal bovine serum (FBS, Gibco) and 10 μg/ml gentamycin (Gibco). Cells were maintained at 37° C. under 7% CO2. • 2. Cells were plated at 6×10^4/ml (0.2 ml/well; 12,000 cells/well) in 96-well microtiter plates (Falcon or Corning/Costar) and incubated at 37° C. overnight (18-24 hours). • 3. 2-5 μl of the test agent-[200 μg/ml stock in 20% DMSO/20 mM HEPES, pH 7.5 (Gibco)] was added to each well to achieve a final concentration of 2-5 μg/ml. Cells were incubated with the test compounds for 5 days at 37° C. • 4. Surviving cells were fixed with 50 μl 50% trichloroacetic acid (Sigma; 10% final concentration) for 1 hour at 4° C. • 5. Plates were rinsed twice with water (0.3 ml per wash using MRD8 robot), and allowed to dry. • 6. Sulforhodamine B (SRB) (Sigma; 0.4% in 1% acetic acid, 50 μl per well; MRD8 robot) was added and plates kept at room temperature for 10 minutes. • 7. Excess dye was removed by washing with 1% acetic acid (3 times, 0.3 ml per wash; MRD8 robot) and allowed to dry. • 8. The dye was solubilized in Tris base (Sigma; 10 mM, 150 μl per well). Plates were kept at room temperature for 30 minutes to allow the dye to diffuse. • 9. Absorbance was measured at 540 nm. • 10. The percentage of cells surviving drug treatment relative to control wells (no drug) was determined. • 11. The difference in % cell survival between the two cell lines was calculated. • 12. Compounds producing a difference score of >50 were considered to be selective for the p21-deficient cells and were evaluated further. Determination of Selectivity of Compounds for p21−/− Cells: • 1. 80S14 cells were cultured as described above. • 2. Cells were seeded in 96-well microtiter plates at 12,000 cells/well (either 0.15 ml/well of 8×10^4 cells/ml suspension, or 0.2 ml/well of 6×10^4 cells/ml suspension). Plates were incubated at 37° C. overnight (18-24 hours). • 3. Serial dilutions of the test agent were added to each well. Dilutions were prepared either in 40% DMSO/20% methanol/20 mM HEPES, pH 7.5 (Gibco) or directly in growth medium. One of two dose ranges were used: 5 pM to 50 μM or 170 pg/ml to 10 μg/ml. Cells were incubated with the test compounds for 5 days at 37° C. • 4. Surviving cells were fixed with 50 μl 50% trichloroacetic acid (Sigma; 10% final concentration) for 1 hour at 4° C. • 5. Plates were rinsed extensively in water, and allowed to dry. • 6. Sulforhodamine B (Sigma; 0.4% in 1% acetic acid, 70 μl per well) was added and plates kept at room temperature for 10 minutes. • 7. Excess dye was removed by washing 5 times with 1% acetic acid and plates were allowed to dry. • 8. The dye was solubilized in Tris base (Sigma; 10 mM, 150 μl per well). Plates were placed on a titer plate shaker (Lab Line Instruments) for 5 minutes to allow the dye to diffuse. • 9. Absorbance was measured at 560 nm.
10. The drug concentration which inhibits cell proliferation by 50% relative to untreated controls (IC50) was determined from cytotoxicity curves.
In general, IC50 refers to the concentration at which inhibition is half-maximal. `COC(=O)CCC(=O)Nc1cccc(-c2ccnc3c(C(=O)c4cccs4)cnn23)c1` [Example 35, methyl 4-oxo-4-({3-[3-(thien-2-ylcarbonyl)pyrazolo[1,5-a]pyrimidin-7-yl]phenyl}anmino)butanoate]: the IC50 was 10 to 50 µM.
Still for that read-out and setting: next, `CC(C)C[C@H](N)C(=O)Nc1cccc(-c2ccnc3c(C(=O)c4cccs4)cnn23)c1` [Example 61, N-1-{3-[3-(thien-2-ylcarbonyl)pyrazolo[1,5-a]pyrimidin-7-yl]phenyl}-L-leucinamide]: 10 to 50 µM; `O=C(COc1ccccc1)Nc1cccc(-c2ccnc3c(C(=O)c4cccs4)cnn23)c1` [Example 93, 2-phenoxy-N-{3-[3-(thien-2-ylcarbonyl)pyrazolo[1,5-a]pyrimidin-7-yl]pheriyl}acetamide]: 1 to 10 µM; `COCCOCC(=O)Nc1cccc(-c2ccnc3c(C(=O)c4cccs4)cnn23)c1` [Example 49, 2-(2-methoxyethoxy)-N-{3-[3-(thien-2-ylcarbonyl)pyrazolo[1,5-a]pyrimidin-7-yl]phenyl} acetamide]: 1 to 10 µM.
The same measure, in the same setting: the figure for `CCS(=O)(=O)Nc1cccc(-c2ccnc3c(C(=O)c4cccs4)cnn23)c1` [Example 21, N-{3-[-(thien-2-ylcarbonyl)pyrazolo[1,5-a]pyrimidin-7-yl]phenyl}ethanesulfonamide] is less than 1 µM.
On the same count and under the same terms, next, `CCCCCCCCCCC(=O)Nc1cccc(-c2ccnc3c(C(=O)c4cccs4)cnn23)c1` [Example 124, N-{3-[3-(thien-2-ylcarbonyl.)pyrazolo[1,5-a]pyrimidin-7-yl]phenyl}undecanamide]: 10 to 50 µM; `N[C@@H](CC1CCCCC1)C(=O)Nc1cccc(-c2ccnc3c(C(=O)c4cccs4)cnn23)c1` [Example 64, 3-cyclohexyl-N-1-{3-[3-(thien-2-ylcarbonyl)pyrazolo[1,5-a]pyrimidin-7-yl]phenyl}-L-alaninamide]: 10 to 50 µM.
As to `CC(C)[C@H](N)C(=O)Nc1cccc(-c2ccnc3c(C(=O)c4cccs4)cnn23)c1` [Example 65, N-1-{3-[3-(thien-2-ylcarbonyl)pyrazolo[1,5-a]pyrimidin-7-yl]phenyl}-L-valinamide], the IC50 lay within 1 to 10 µM.
Still for that read-out and setting: the figure for `CCCCCNC(=O)NCC(=O)Nc1cccc(-c2ccnc3c(C(=O)c4cccs4)cnn23)c1` [Example 118, N-2-[(pentylamino)carbonyl]-N-1-{3-[3-(thien-2-ylcarbonyl)pyrazolo[1,5-A]pyrimidin-7-yl]phenyl}glycinamide] is 10 to 50 µM; for `CC[C@H](C)[C@H](N)C(=O)Nc1cccc(-c2ccnc3c(C(=O)c4cccs4)cnn23)c1` [Example 62, N-1-{3-[3-(thien-2-ylcarbonyl)pyrazolo[1,5-a]pyrimidin-7-yl]phenyl}-L-isoleucinamide] it is 1 to 10 µM.

Staying with this assay, now noted: Cellular activity in 80S14 (p21-deficient) cells, SRB; class symbols; read-out: IC50 for 80S14.
As to “N-{3-[3-(2-Thienylcarbonyl)pyrazolo[1,5-a]pyrimidin-7-yl]phenyl}-3-trifluoromethyl)benzamide [Example 193]”, the IC50 was less than 1 µM.
Same read-out and setting: the figure for “N,N′-Diethyl-3-[3-(2-thienylcarbonyl)-pyrazolo[1,5-a]pyrimidin-7-yl]-benzamide [Example 181]” is 10 to 50 µM; for “3.5-Dinitro-N-{3-[3-(2-thienylcarbonyl)pyrazolo[1,5-a]pyrimidin-7-yl]phenyl}benzamide [Example 198]” it is 10 to 50 µM.
The same measure, in the same setting: the figure for “tert-Butyl 4-[({3-[3-[3-(thien-2-ylcarbonyl)pyrazolo[1,5-a]pyrimidin-7-yl]phenyl}amino)carbonyl]piperidine-1-carboxylate [Example 295]” is 1 to 10 µM.
Same read-out and setting: next, `CC(C)COC(=O)Nc1cccc(-c2ccnc3c(Br)cnn23)c1` [Example 225, Isobutyl 3-(3-bromopyrazolo[1,5-a]pyrimidin-7-vl)phenvlcarbamate]: 10 to 50 µM.

The same assay, now with this note: Homo sapiens, 80S14, 120 h, read-out: IC50 for 80S14 (μM).
Take `C=C(C)OC(=O)Nc1cccc(-c2ccnc3c(C(=O)c4cccs4)cnn23)c1` [Example 15, isopropenyl3-[3-(thien-2-ylcarbonyl)pyrazolo[1,5-a]pyrimidin-7-yl]phenylcarbamate]: the half-inhibitory concentration (IC50) is less than 1 µM.

Staying with this assay, now noted: Homo sapiens, 120 h; 80S14 (p21-deficient) cells, 5 days at 37° C., SRB; read-out: IC50 for 80S14.
On to `O=C(Cc1cccs1)Nc1cccc(-c2ccnc3c(C(=O)c4cccs4)cnn23)c1` [Example 50, 2-thien-2-yl-N-{3-[3-(thien-2-ylcarbonyl)pyrazolo[1,5-a]pyrimidin-7-yl]phenyl}acetamide], for which the IC50 was less than 1 µM.
Same read-out and setting: next, `O=C(c1cccs1)c1cnn2c(-c3cccc(NC(=O)[C@@H]4CCCN4C(=O)C(F)(F)F)c3)ccnc12` [Example 41, N-{3-[3-(thien-2-ylcarbonyl)pyrazolo[1,5-a]pyrimidin-7-yl]phenyl}-1-(trifluoroacetyl)-L-prolinamide]: 1 to 10 µM.
Still for that read-out and setting: the figure for `N[C@H](C(=O)Nc1cccc(-c2ccnc3c(C(=O)c4cccs4)cnn23)c1)C1CCCCC1` [Example 68, (2S)-2-amino-2-cyclohexyl-N-{3-[3-(thien-2-ylcarbonyl)pyrazolo[1,5-a]pyrimidin-7-yl]phenyl}ethanamide] is 1 to 10 µM.
Still for that read-out and setting: the figure for `CC(=O)OCC(=O)Nc1cccc(-c2ccnc3c(C(=O)c4cccs4)cnn23)c1` [Example 48, 2-oxo-2-({3-[3-(thien-2-ylcarbonyl)pyrazolo[1,5-a]pyrimidin-7-yl]phenyl}amino)ethyl acetate] is 1 to 10 µM; for `O=C(c1cccs1)c1cnn2c(-c3cccc(NC(=O)C45CC6CC(CC(C6)C4)C5)c3)ccnc12` [Example 42, N-{3-[3-(thien-2-ylcarbonyl)pyrazolo[1,5-a]pyrimidin-7-yl]phenyl} adamantane-1-carboxamide] it is less than 1 µM.
With `CN(C)CCNC(=O)Nc1cccc(-c2ccnc3c(C(=O)c4cccs4)cnn23)c1` [Example 134, N-[2-(dimethylamino)ethyl]-N′-{3-[3-(thien-2-ylcarbonyl)pyrazolo[1,5-a]pyrimidin-7-yl]phenyl}urea], the concentration for half-maximal inhibition (IC50) lay in the range of 10 to 50 µM.
On the same count and under the same terms, next, `C#CCCC(=O)Nc1cccc(-c2ccnc3c(C(=O)c4cccs4)cnn23)c1` [Example 45, N-{3-[3-(thien-2-ylcarbonyl)pyrazolo[1,5-a]pyrimidin-7-yl]phenyl}pent-4-ynamide]: less than 1 µM.
On the same count and under the same terms, next, `O=C(CNC(=O)C12CC3CC(CC(C3)C1)C2)Nc1cccc(-c2ccnc3c(C(=O)c4cccs4)cnn23)c1` [Example 116, N-[2-oxo-2-({3-[3-(thien-2-ylcarbonyl)pyrazolo[1,5-a]pyrimidin-7-yl]phenyl}amino)ethyl] adamantane-1-carboxamide]: 1 to 10 µM; `O=C(c1cccs1)c1cnn2c(-c3cccc(NC(=O)[C@@H]4CCCN4)c3)ccnc12` [Example 67, N-{3-[3-(thien-2-ylcarbonyl)pyrazolo[1,5-a]pyrimidin-7-yl]phenyl}-L-prolinamide]: 1 to 10 µM.

Staying with this assay, now noted: Homo sapiens; Cellular activity in 80S14 (p21-deficient) cells, SRB; class symbols; read-out: IC50 for 80S14.
Take `O=C(Nc1cccc(-c2ccnc3c(C(=O)c4cccs4)cnn23)c1)NC1CCCCC1` [Example 249, N-Cyclohexyl-N′-{3-[3-(thien-2-ylcarbonyl)pyrazolo[1,5-a]pyrimidin-7-yl]phenyl}urea]: the IC50 is less than 1 µM.
